We go through 29 molecules from US20250066369A1, “BICYCLIC PHTHALAZIN-1(2H)-ONE DERIVATIVES AND RELATED USES” (NodThera Limited, priority 2022, published 2025).

Where a name gives a salt, the structure may show the parent alone. Some results are limits rather than exact numbers.

The first assay concerns IL-1β release upon NLRP3 activation in peripheral blood mononuclear cells (PBMC). As to the kind of experiment: PBMC IC50 determination assay: inhibition of IL-1β release upon NLRP3 activation. In kind it is cell-based. To be noted: PBMC primed with LPS 3 h, compound 30 min, stimulated with ATP (5 mM) or nigericin (10 μM) 1 h; IL-1β by ELISA (Protocol A) or HTRF (Protocol B). The procedure: PBMC IC50 determination assay. The compounds of the present disclosure were tested for their inhibitory activity against IL-1β release upon NLRP3 activation in peripheral blood mononuclear cells (PBMC).
Protocol A. PBMC were isolated from buffy coats by density gradient centrifugation on Histopaque-1077 (Sigma, cat no. 10771). Isolated cells were seeded into the wells of a 96-well plate and incubated for 3 h with lipopolysaccharide (LPS). Following medium exchange, the compounds of the present disclosure were added (a single compound per well) and the cells were incubated for 30 min. Next, the cells were stimulated either with ATP (5 mM) or nigericin (10 μM) for 1 h and the cell culture media from the wells were collected for further analysis.
The release of IL-1β into the media was determined by a quantitative detection of IL-1β in the media using an IL-1β enzyme-linked immunosorbent assay (ELISA) Ready-SET-Go!, eBioscience cat. No. 88-7261-88. Briefly, in a first step, high affinity binding plates (Corning, Costar 9018 or NUNC Maxisorp Cat No. 44-2404) were coated overnight at 4° C. with specific capture antibody included in the kit (anti-human IL-1β ref. 14-7018-68). Subsequently, plates were blocked with blocking buffer for 1 h at room temperature (rt) and after washing with a buffer (PBS with 0.05% Tween-20) incubated with protein standard and culture media. After 2 h of incubation at rt, plates were washed and incubated with biotinylated detection antibody included in the kit (anti-human IL-1β Biotin ref 33-7110-68) for 1 h at rt. Plates were washed and incubated with HRP-streptavidin for 30 min at rt and washed again. The signal was developed after addition of 3,3′,5,5′-tetramethylbenzidine-peroxidase (TMB) until colour appeared and the reaction was stopped by 2 M H2SO4. A microplate spectrophotometer (BioTek) was used to detect signals with 450 nm. The detection range of IL-1β ELISA was […].
Protocol B. PBMC were isolated from buffy coats by density gradient centrifugation on Histopaque-1077 (Sigma, cat no. 10771). Isolated cells were seeded into the wells (280,000 cells/well) of a 96-well plate and incubated for 3 h with lipopolysaccharide (LPS, 1 μg/mL diluted 1000× from a 1 mg/mL stock solution). The compounds of the present disclosure were added (a single compound per well) and the cells were incubated for 30 min. Next, the cells were stimulated with ATP (5 mM final concentration diluted 20× from a 100 mM stock solution) for 1 h and the cell culture media from the wells were collected for further analysis.
The release of IL-1β into the media was determined by quantitative detection of IL-1β in the media using HTRF®, CisBio cat. No. 62HIL1BPEH. Briefly, cell culture supernatant were dispensed directly into the assay plate containing antibodies labelled with the HTRF® donor and acceptor. A microplate spectrophotometer (BMG) was used to detect signals at 655 nm and 620 nm. The detection range of IL-1β HTRF® was 39-6500 μg/mL.
In turn, `CC(C)c1nn(C2(C(=O)Nc3ncccn3)CC2)c(=O)c2cn(C3CC3)nc12` [Compound 66, 1-(2-Cyclopropyl-7-isopropyl-4-oxo-2,4-dihydro-5H-pyrazolo[3,4-d]pyridazin-5-yl)-N-(pyrimidin-2-yl)cyclopropane-1-carboxamide] displayed an IC50 of 3000 to 10000 nM.

The molecule `CC(C)c1nn(C2(C(=O)Nc3ncccn3)CC2)c(=O)c2cn(C3CC3)nc12` [Compound 70, 1-(2-Cyclopropyl-7-isopropyl-4-oxo-2,4-dihydro-5H-pyrazolo[3,4-d]pyridazin-5-yl)-N-(pyrimidin-2-yl)cyclopropane-1-carboxamide] displayed an IC50 of 10000 to 50000 nM.

Staying with this assay, now noted: PBMC, PBMC primed with LPS 3 h, compound 30 min, stimulated with ATP (5 mM) or nigericin (10 μM) 1 h; IL-1β by ELISA (Protocol A) or HTRF (Protocol B).
As for `COCc1cc2c(C(C)C)nn(CC(=O)N[C@@H]3CCCN(C4CCC4)C3)c(=O)c2s1` [Compound 31, N-[(3R)-1-Cyclobutyl-3-piperidyl]-2-[4-isopropyl-2-(methoxymethyl)-7-oxo-thieno [2,3-d]pyridazin-6-yl]acetamide hydrochloride], the IC50 is 1000 to 3000 nM.

As to `CCc1nn(CC(=O)Nc2ncccn2)c(=O)c2ccc(C3CC3)nc12` [Compound 32, 2-(2-Cyclopropyl-8-ethyl-5-oxo-pyrido[2,3-d]pyridazin-6-yl)-N-pyrimidin-2-yl-acetamide], the IC50 lay in the range of 100 to 1000 nM.

Molecule `CCc1nn(CC(=O)Nc2ncc(F)cn2)c(=O)c2ccc(C3CC3)nc12` [Compound 33, 2-(2-Cyclopropyl-8-ethyl-5-oxo-pyrido[2,3-d]pyridazin-6-yl)-N-(5-fluoropyrimidin-2-yl)acetamide] yielded an IC50 of 100 to 1000 nM.

With `Cc1nn(CC(=O)Nc2ncccn2)c(=O)c2ccc(C3CC3)nc12` [Compound 34, 2-(2-Cyclopropyl-8-methyl-5-oxo-pyrido[2,3-d]pyridazin-6-yl)-N-pyrimidin-2-yl-acetamide], the IC50 is 1000 to 3000 nM.

In turn, `Cc1nn(CC(=O)Nc2ncc(F)cn2)c(=O)c2ccc(C3CC3)nc12` [Compound 35, 2-(2-Cyclopropyl-8-methyl-5-oxo-pyrido[2,3-d]pyridazin-6-yl)-N-(5-fluoropyrimidin-2yl)acetamide] registered an IC50 of 100 to 1000 nM.

As to `CCc1nc2c(C(C)C)nn(CC(=O)Nc3ncc(F)cn3)c(=O)c2s1` [Compound 36], the IC50 was ≤ 100 nM.

`CCn1cc2c(=O)n(CC(=O)Nc3ncccn3)nc(CF)c2n1` [Compound 40, 2-(2-Ethyl-7-(fluoromethyl)-4-oxo-2,4-dihydro-5H-pyrazolo[3,4-d]pyridazin-5-yl)-N-(pyrimidin-2-yl)acetamide] registered an IC50 of 1000 to 3000 nM.

Take `CCc1ccc2c(=O)n(CC(=O)Nc3ncccn3)nc(C(C)C)c2n1` [Compound 42]: the IC50 lay within 100 to 1000 nM.

For `CCc1ccc2c(=O)n(CC(=O)Nc3ncc(F)cn3)nc(C(C)C)c2n1` [Compound 43], the IC50 was 100 to 1000 nM.

The molecule `Cc1nn(CC(=O)N[C@@H]2CCCN(C)C2)c(=O)c2ccc(C3CC3)nc12` [Compound 46] had an IC50 of 1000 to 3000 nM.

For the molecule `Cc1nn(CC(=O)N[C@@H]2CCCN(C3CCC3)C2)c(=O)c2ccc(C3CC3)nc12` [Compound 47], the IC50 fell in the range of 100 to 1000 nM.

`CC(C)c1nn(C2(C(=O)Nc3ncccn3)CC2)c(=O)c2cn(C(C)C)nc12` [Compound 50, 1-(2,7-Diisopropyl-4-oxo-2,4-dihydro-5H-pyrazolo[3,4-d]pyridazin-5-yl)-N-(pyrimidin-2-yl)cyclopropane-1-carboxamide]: the IC50 lay in the range of 1000 to 3000 nM.

As to `CC(C)c1nn(C2(C(=O)Nc3ncc(F)cn3)CC2)c(=O)c2cn(C(C)C)nc12` [Compound 51, 1-(2,7-Diisopropyl-4-oxo-2,4-dihydro-5H-pyrazolo[3,4-d]pyridazin-5-yl)-N-(5-fluoropyrimidin-2-yl)cyclopropane-1-carboxamide], the IC50 lay in the range of 100 to 1000 nM.

Consider `CCc1cc2c(=O)n(CC(=O)Nc3ncccn3)nc(CC)c2o1` [Compound 54, 2-(2,7-Diethyl-4-oxofuro[2,3-d]pyridazin-5(4H)-yl)-N-(pyrimidin-2-yl)acetamide], for which the IC50 lay in the range of 100 to 1000 nM.

In turn, `CCc1cc2c(=O)n(CC(=O)Nc3ncc(F)cn3)nc(CC)c2o1` [Compound 55, 2-(2,7-Diethyl-4-oxofuro[2,3-d]pyridazin-5(4H)-yl)-N-(5-fluoropyrimidin-2-yl)acetamide] had an IC50 of 100 to 1000 nM.

For `CC(C)c1nn(CC(=O)Nc2ncc(F)cn2)c(=O)c2cc(Cl)sc12` [Compound 59, 2-(2-Chloro-7-isopropyl-4-oxothieno[2,3-d]pyridazin-5(4H)-yl)-N-(5-fluoropyrimidin-2-yl)acetamide], the IC50 fell in the range of 100 to 1000 nM.

In the case of `CC(C)c1nn(CC(=O)Nc2ncc(F)cn2)c(=O)c2sc(Cl)cc12` [Compound 60, 2-(2-Chloro-4-isopropyl-7-oxothieno[2,3-d]pyridazin-6(7H)-yl)-N-(5-fluoropyrimidin-2-yl)acetamide], the IC50 lay in the range of 100 to 1000 nM.

Consider `CC(C)c1nn(CC(=O)Nc2ncc(F)cn2)c(=O)c2sc(Cl)nc12` [Compound 61], for which the IC50 lay within 1000 to 3000 nM.

As for `CC(C)c1nn(CC(=O)Nc2ncccn2)c(=O)c2cc(Br)oc12` [Compound 62, 2-(2-Bromo-7-isopropyl-4-oxofuro[2,3-d]pyridazin-5(4H)-yl)-N-(pyrimidin-2-yl)acetamide], the IC50 is 100 to 1000 nM.

On to `Cc1cnc(NC(=O)Cn2nc(C(C)C)c3nn(C(C)C)cc3c2=O)nc1` [Compound 63, 2-(2,7-Diisopropyl-4-oxo-pyrazolo[3,4-d]pyridazin-5-yl)-N-(5-methylpyrimidin-2-yl)acetamide], for which the IC50 is 100 to 1000 nM.

As to `CC(C)c1nn(CC(=O)Nc2ncccn2)c(=O)c2sc(Br)cc12` [Compound 64, 2-(2-Bromo-4-isopropyl-7-oxothieno[2,3-d]pyridazin-6(7H)-yl)-N-(pyrimidin-2-yl)acetamide], the IC50 fell in the range of 100 to 1000 nM.

For the molecule `CC(C)c1nn(CC(=O)Nc2ncccn2)c(=O)c2cn(C3CC3)nc12` [Compound 65, 2-(2-Cyclopropyl-7-isopropyl-4-oxo-2,4-dihydro-5H-pyrazolo[3,4-d]pyridazin-5-yl)-N-(pyrimidin-2-yl)acetamide], the IC50 is 100 to 1000 nM.

`CC(C)c1nn(CC(=O)Nc2ncc(Cl)cn2)c(=O)c2cn(C(C)C)nc12` [Compound 67, N-(5-Chloropyrimidin-2-yl)-2-(2,7-diisopropyl-4-oxo-2,4-dihydro-5H-pyrazolo[3,4-d]pyridazin-5-yl)acetamide] returned an IC50 of 100 to 1000 nM.

In the case of `CC(C)c1nn(CC(=O)N[C@H]2C[C@@](C)(O)C2)c(=O)c2cn(C(C)C)nc12` [Compound 68, 2-(2,7-Diisopropyl-4-oxo-2,4-dihydro-5H-pyrazolo[3,4-d]pyridazin-5-yl)-N-((cis)-3-hydroxy-3-methylcyclobutyl)acetamide], the IC50 is 1000 to 3000 nM.

`CCc1cc2c(C(C)C)nn(CC(=O)N[C@H]3C[C@@](C)(O)C3)c(=O)c2s1` [Compound 69, 2-(2-Ethyl-4-isopropyl-7-oxothieno[2,3-d]pyridazin-6(7H)-yl)-N-((cis)-3-hydroxy-3-methylcyclobutyl)acetamide] yielded an IC50 of 100 to 1000 nM.

Take `CC(C)c1nn(CC(=O)Nc2ncccn2)c(=O)c2cn(C3CCC3)nc12` [Compound 71, 2-(2-Cyclobutyl-7-isopropyl-4-oxo-2,4-dihydro-5H-pyrazolo[3,4-d]pyridazin-5-yl)-N-(pyrimidin-2-yl)acetamide]: the IC50 was in the range of 1000 to 3000 nM.

Molecule `CC(C)c1nn(CC(=O)Nc2ncco2)c(=O)c2cn(C(C)C)nc12` [Compound 72, 2-(2,7-Diisopropyl-4-oxo-pyrazolo[3,4-d]pyridazin-5-yl)-N-oxazol-2-yl-acetamide] registered an IC50 of 100 to 1000 nM.
